Test results as given in patent US4451461A, “10-(1-Aza-[2,2,2)-bicyclo-3-octyl]-10H-2-phenothiazinesulfonamide and derivatives thereof” (Pharmindustrie, priority 1981, dated 1984).

System: gastric hypersecretion stimulated by pentagastrine (Heidenhein pouch dogs)
Experiment: Anti-secretory activity against pentagastrine-stimulated gastric hypersecretion in dogs fitted with the Heidenhein pouch
Format: in vivo, dog (mongrels)
Settings: for ED50 (dose which reduces the hourly acid output by 50% during the 3rd or 4th hour in relation to the second hour of perfusion): p.o., gelatine capsule, 1.5 h after start of pentagastrine perfusion, dogs, doses expressed as base
Method: The anti-secretory activity of the compounds of formula (I) according to the invention has been investigated in cases of gastric hypersecretion which has been stimulated by pentagastrine in dogs fitted with the Heidenhein pouch.
Three mongrels, fitted with the Heidenhein pouch and not having eaten for 18 hours, were given a veinous perfusion of […] pentagastrine, at a volume of 30 ml/hour for 4 hours. The secretion in the pouch was collected in a bottle which was changed every 15 minutes. 1.5 hours after commencement of the perfusion, the product to be investigated was administered orally in an h°000 gelatine-coated capsule. The effective dose 50% (ED50) is the dose which reduces the hourly acid output by 50% during the 3rd or 4th hour of the experiment in relation to the acid output of the second hour of perfusion. The doses are expressed as a product in basic form.

SMILES	ED50 (dose which reduces the hourly acid output by 50% during the 3rd or 4th hour in relation to the second hour of perfusion) [mg/kg]	activity compared with cimetidine (in words) (Heidenhein pouch dogs, oral, vs cimetidine)
CN/C(=N/CCSCc1nc[nH]c1C)NC#N [Cimetidine]	2.3	
CNS(=O)(=O)c1ccc2c(c1)N(C1CN3CCC1CC3)c1ccccc1S2 (stereo not shown) [Example 2, N-METHYL-10-[1-AZA-(2,2,2)-BICYCLO-3-OCTYL]-10H-2-PHENOTHIAZINESULFONAMIDE]	0.7	more active than cimetidine
CN(C)S(=O)(=O)c1ccc2c(c1)N(C1CN3CCC1CC3)c1ccccc1S2 (stereo not shown) [N,N-dimethyl-10-[1-aza-(2,2,2)-bicyclo-3-octyl]-10H-2-phenothiazinesulfonamide]	1.25	
